From PMC3351833 (Biochemical Journal, 2011)

Assays:
[1] = target: CaM; conditions: read-out: Kd of CDZ as CaM inhibitor; cited from earlier work
[2] = tested on: Cx50 gap junctions; type: cell-based, mouse; conditions: 1 μM peptide in both whole-cell patch pipettes; 1 μM ionomycin + 1.8 mM [Ca2+]o; Cx50-N2a cell pairs

Molecule: Clc1ccc(C(c2ccc(Cl)cc2)n2cc[n+](CC(OCc3ccc(Cl)cc3Cl)c3ccc(Cl)cc3Cl)c2)cc1 (centres unmarked) [CDZ, calmidazolium]
- Kd [1]: ~1000 nM

Molecule: FKLYKCISFGGTEITTRSHVLTKKRL [SCx50p]
- Share of the Ca2+/CaM-dependent decline in Cx50 Gj prevented [2]: 20%
